Here are results for five compounds from patent US10265298B2, “Method of increasing the bioavailability of silybin” (Macau University of Science and Technology, priority 2017, dated 2019).

One data set concerns Caco-2 cell monolayers. Kind of data set: Bidirectional transport across Caco-2 cell monolayers. The following applies: for lowest effective dosage for inhibiting efflux transport of silybin: silybin 10 μM; for PA-B: human, Caco-2, 180 min; for mean efflux ratio (PB-A/PA-B): silybin alone, no inhibitor. The protocol: Human colorectal adenocarcinoma-2 (Caco-2) cells was obtained from American Type Culture Collection (Manassas, Va.) and frozen at −80° C. For transport study, cells were cultured at 37° C./5% CO2 in Dulbecco's modified Eagle's medium supplemented with 10% fetal bovine serum, 1% nonessential amino acids, and 1% penicillin-streptomycin. […] The culture medium was changed 24 hours after seeding to remove cell debris and dead cells; after which the medium was changed on alternate days. Monolayers were used for transport assays between 21 and 23 days for Caco-2 cells. Prior to transport study, cell monolayers were certified based on internal criteria on transepithelial electrical resistance (TEER) values.
Prior to transport study, cell monolayers were certified based on our internal criteria on transepithelial electrical resistance (TEER) values, and only monolayers that met the acceptance criteria (transepithelial electrical resistance >500 Ω·cm^2 for Caco-2 cells and >200 Ω·cm^2 for MDCK cells) were selected for transport studies.
Bidirectional transport assays in human colorectal adenocarcinoma 2 (Caco-2) and Madin-Darby canine kidney II (MDCK II) was carried out by dosing substrates in assay buffer to either the apical chamber (A-to-B) or the basolateral chamber (B-to-A); cells were then incubated at 37° C. with shaking at 50 rotations per minute (rpm), and 100 μl samples were collected at 30, 60, 90, 120 and 180 minutes from the basolateral chamber to study the drug transport of AP to BL, or apical chamber to study the drug transport of BL to AP. Cell monolayers were then washed twice with ice-cold assay buffer and lysed with methanol on ice for 10 minutes. For inhibition studies, Caco-2 or MDCK II cell monolayers were pre-incubated with an inhibitor in both apical and basolateral chambers for 30 minutes, and bidirectional transport of 10 μM silybin was conducted in the absence (control) or presence of the inhibitor in both chambers. […] For fluorescence intensity detection, samples collected from AP or BL side were immediately detected in 96 well black plate by Microplate ultraviolet-visible spectroscopy (UV/VIS) spectrophotometer (TECAN infinite M200 PRO, Männedorf, Switzerland). In all cases, each determination was performed in triplicate.
The apparent permeability coefficients (Papp) were calculated as Papp=dQ/dt×1/(C“0”A) where dQ/dt (mM/sec) is the rate of permeation of the drug across the cells, C0 (millimolar (mM)) is the donor compartment concentration at time zero and A (cm^2) is the area of the cell monolayer. C0 is obtained from analysis of the dosing solution at the start experiment. Efflux Ratio (ER)=Papp (B to A)/Papp (A to B), while Papp (B−A) is the Papp value measured in the B to A direction, and Papp (A−B) is the Papp value measured in the A to B direction. 1.5 Preparation of Rat Sandwich-Cultured Hepatocytes

In the next data set the target is MRP2 (Homo sapiens, UniProt Q92887). Format: in vitro ADME. Also on record: host or cells: MDCKII (Madin-Darby canine kidney II). Conditions: for mean net efflux ratio: Caco-2. As to the method: (§1) In all cases, each determination was performed in triplicate.
Chain of MRP2 (Q92887 whole entry): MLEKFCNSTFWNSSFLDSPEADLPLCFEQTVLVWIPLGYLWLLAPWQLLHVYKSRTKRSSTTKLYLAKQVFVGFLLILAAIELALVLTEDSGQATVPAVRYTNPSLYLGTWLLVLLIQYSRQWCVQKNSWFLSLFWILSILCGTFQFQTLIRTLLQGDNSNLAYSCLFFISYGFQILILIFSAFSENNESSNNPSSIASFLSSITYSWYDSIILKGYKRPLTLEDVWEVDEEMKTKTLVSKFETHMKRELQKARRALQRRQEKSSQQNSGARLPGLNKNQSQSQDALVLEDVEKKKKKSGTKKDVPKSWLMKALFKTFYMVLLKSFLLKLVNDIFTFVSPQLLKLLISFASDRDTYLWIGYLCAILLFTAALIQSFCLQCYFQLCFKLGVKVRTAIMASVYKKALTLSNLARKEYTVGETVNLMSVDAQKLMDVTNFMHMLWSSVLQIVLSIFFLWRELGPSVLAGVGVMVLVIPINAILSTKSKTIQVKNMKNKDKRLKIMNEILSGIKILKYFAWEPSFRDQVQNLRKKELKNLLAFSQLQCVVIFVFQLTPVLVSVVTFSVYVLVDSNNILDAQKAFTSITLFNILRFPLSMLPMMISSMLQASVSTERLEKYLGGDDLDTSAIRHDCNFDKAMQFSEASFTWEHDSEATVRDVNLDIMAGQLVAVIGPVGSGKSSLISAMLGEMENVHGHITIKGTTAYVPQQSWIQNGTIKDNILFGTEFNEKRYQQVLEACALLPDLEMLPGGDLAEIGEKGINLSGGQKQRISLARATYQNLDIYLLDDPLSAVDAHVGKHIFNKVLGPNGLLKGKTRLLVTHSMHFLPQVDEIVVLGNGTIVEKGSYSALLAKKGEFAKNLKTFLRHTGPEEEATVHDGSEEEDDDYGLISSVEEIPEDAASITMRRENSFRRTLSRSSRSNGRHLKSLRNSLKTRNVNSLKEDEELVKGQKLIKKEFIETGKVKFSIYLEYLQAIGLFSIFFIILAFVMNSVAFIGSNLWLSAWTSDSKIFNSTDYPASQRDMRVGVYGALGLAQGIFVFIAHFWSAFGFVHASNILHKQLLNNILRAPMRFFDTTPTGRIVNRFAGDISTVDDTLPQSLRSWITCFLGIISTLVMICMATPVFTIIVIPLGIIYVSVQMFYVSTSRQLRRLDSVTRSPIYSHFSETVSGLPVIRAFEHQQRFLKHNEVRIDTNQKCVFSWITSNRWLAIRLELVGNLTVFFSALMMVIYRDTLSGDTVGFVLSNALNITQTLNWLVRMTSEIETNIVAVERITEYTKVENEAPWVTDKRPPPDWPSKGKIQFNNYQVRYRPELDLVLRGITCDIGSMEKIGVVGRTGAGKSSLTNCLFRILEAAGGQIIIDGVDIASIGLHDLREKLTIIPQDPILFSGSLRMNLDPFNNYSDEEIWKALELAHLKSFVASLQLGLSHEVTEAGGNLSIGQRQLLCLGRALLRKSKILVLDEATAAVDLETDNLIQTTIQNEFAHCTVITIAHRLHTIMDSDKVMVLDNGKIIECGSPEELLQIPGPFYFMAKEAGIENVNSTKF
(§2) 1.5 Preparation of Rat Sandwich-Cultured Hepatocytes

Another data set has as its system MDCKII-WT cells. Format: in vitro ADME, canine. The following applies: for mean net efflux ratio: MDCK. The protocol: as §1, §2
Another data set has as its target T1, BCRP (Homo sapiens, UniProt Q9UNQ0).
T1 sequence (Q9UNQ0 1-655): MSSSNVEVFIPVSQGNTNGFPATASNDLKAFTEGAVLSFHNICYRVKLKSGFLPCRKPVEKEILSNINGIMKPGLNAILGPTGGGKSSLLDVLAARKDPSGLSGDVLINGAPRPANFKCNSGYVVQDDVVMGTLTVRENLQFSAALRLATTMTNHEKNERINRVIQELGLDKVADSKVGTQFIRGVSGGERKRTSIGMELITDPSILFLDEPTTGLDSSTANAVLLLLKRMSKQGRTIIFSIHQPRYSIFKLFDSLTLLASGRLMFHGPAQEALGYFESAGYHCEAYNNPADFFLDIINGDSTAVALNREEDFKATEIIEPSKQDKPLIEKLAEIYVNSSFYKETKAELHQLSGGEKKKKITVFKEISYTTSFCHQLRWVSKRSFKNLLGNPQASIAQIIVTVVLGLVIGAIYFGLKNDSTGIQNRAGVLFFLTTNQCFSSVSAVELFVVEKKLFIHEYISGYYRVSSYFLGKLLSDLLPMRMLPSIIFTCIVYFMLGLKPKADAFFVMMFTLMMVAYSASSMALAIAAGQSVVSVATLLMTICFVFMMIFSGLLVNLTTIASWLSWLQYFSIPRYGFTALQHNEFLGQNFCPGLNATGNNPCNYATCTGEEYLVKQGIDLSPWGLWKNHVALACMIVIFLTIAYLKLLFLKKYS
Kind of data set: Transport of silybin across MDCKII-BCRP cells. Also on record: host or cells: MDCKII (Madin-Darby canine kidney II). Format: in vitro ADME. The protocol: as §1, §2

The target of another data set is MDR1 (P-gp) (Homo sapiens, UniProt P08183). Briefly: Transport of silybin across MDCKII-MDR1 cells. Conditions: for net efflux ratio: absence of any inhibitor. As to the method: Parental Madin-Darby canine kidney II (MDCKII), multi-drug resistance gene 1-Madin-Darby canine kidney II (MDR1-MDCKII), breast cancer resistance protein-Madin-Darby canine kidney II (BCRP-MDCKII), and multi-drug resistance protein 2-Madin-Darby canine kidney II (MRP2-MDCKII) cells were kindly provided by the Netherlands Cancer Institute (Amsterdam, Netherlands) and frozen at −80° C. The MDCKII cells were cultured at 37° C./5% CO2 in Dulbecco's modified Eagle's medium supplemented with 10% fetal bovine serum, 1% nonessential amino acids, and 2% penicillin-streptomycin. The cells were seeded on transwell inserts (Corning Inc.) at a density of 2.0×10^5 cells/cm^2 and grown for 4-5 days to form confluent monolayers. […]
Chain of MDR1 (P-gp) (P08183 whole entry): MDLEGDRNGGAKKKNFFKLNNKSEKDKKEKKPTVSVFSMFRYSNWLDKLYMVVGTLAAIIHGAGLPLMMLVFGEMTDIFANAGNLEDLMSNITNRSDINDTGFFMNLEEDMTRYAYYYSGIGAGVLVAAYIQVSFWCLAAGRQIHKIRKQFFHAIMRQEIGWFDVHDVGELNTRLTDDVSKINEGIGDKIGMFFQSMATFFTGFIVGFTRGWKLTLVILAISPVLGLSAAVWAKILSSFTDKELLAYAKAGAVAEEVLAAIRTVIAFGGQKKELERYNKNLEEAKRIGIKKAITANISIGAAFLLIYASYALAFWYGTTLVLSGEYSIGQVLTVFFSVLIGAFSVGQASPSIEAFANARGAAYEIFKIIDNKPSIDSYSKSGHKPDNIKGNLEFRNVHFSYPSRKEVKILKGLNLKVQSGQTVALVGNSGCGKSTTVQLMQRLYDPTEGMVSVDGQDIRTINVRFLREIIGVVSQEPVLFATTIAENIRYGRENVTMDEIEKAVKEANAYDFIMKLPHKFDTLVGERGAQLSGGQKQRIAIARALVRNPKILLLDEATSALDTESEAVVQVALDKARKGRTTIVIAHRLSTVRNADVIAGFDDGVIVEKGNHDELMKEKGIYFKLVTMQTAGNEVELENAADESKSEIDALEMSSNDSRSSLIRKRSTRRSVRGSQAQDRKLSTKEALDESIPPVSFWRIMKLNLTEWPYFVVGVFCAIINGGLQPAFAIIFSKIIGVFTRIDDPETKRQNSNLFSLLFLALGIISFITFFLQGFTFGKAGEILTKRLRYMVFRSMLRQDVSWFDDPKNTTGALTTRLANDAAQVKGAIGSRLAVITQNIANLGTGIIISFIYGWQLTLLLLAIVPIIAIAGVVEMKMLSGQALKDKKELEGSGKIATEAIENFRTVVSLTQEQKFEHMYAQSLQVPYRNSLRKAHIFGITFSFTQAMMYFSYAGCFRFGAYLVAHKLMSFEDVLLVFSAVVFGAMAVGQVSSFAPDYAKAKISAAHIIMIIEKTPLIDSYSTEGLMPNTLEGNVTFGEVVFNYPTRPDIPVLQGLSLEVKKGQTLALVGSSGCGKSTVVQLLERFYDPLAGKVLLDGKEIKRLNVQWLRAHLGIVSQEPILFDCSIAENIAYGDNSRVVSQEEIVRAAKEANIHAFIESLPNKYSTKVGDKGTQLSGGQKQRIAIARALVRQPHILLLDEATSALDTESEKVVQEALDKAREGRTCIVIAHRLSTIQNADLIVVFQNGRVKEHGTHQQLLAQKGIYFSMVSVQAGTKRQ
Bidirectional transport assays in human colorectal adenocarcinoma 2 (Caco-2) and Madin-Darby canine kidney II (MDCK II) was carried out by dosing substrates in assay buffer to either the apical chamber (A-to-B) or the basolateral chamber (B-to-A); cells were then incubated at 37° C. with shaking at 50 rotations per minute (rpm), and 100 μl samples were collected at 30, 60, 90, 120 and 180 minutes from the basolateral chamber to study the drug transport of AP to BL, or apical chamber to study the drug transport of BL to AP. […] For fluorescence intensity detection, samples collected from AP or BL side were immediately detected in 96 well black plate by Microplate ultraviolet-visible spectroscopy (UV/VIS) spectrophotometer (TECAN infinite M200 PRO, Männedorf, Switzerland). […]
The apparent permeability coefficients (Papp) were calculated as Papp=dQ/dt×1/(C“0”A) where dQ/dt (mM/sec) is the rate of permeation of the drug across the cells, C0 (millimolar (mM)) is the donor compartment concentration at time zero and A (cm^2) is the area of the cell monolayer. […] Efflux Ratio (ER)=Papp (B to A)/Papp (A to B), while Papp (B−A) is the Papp value measured in the B to A direction, and Papp (A−B) is the Papp value measured in the A to B direction. […]

Regarding `O=c1cc(-c2ccccc2)oc2cc(O)c(O)c(O)c12` [baicalein], the “effect on efflux of silybin” value in the data set with Caco-2 cell monolayers (5 μM baicalein, silybin at 40 μM) is on record as “did not affect the efflux of silybin”; with Caco-2 cell monolayers (5 μM baicalein, silybin concentration below 30 μM), “significantly inhibited the efflux of silybin”. In addition, the “lowest effective dosage for inhibiting efflux transport of silybin” value in the data set on Caco-2 cell monolayers was 0.5 µM.

Regarding `COc1cc([C@@H]2Oc3cc([C@H]4Oc5cc(O)cc(O)c5C(=O)[C@@H]4O)ccc3O[C@H]2CO)ccc1O` [silybin B], the “mean net efflux ratio” value worked out at 3.30 on MRP2 and 0.99 with MDCKII-WT cells. In the data set on Caco-2 cell monolayers, the PA-B was 0.45±0.02×10^−6 cm/s. Further, the “mean efflux ratio (PB-A/PA-B)” value in the data set with Caco-2 cell monolayers is 4.61. In addition, the net efflux ratio on BCRP is listed as 3.04; on MDR1 (P-gp), 1.20.

Regarding `COc1ccc(-c2cc(=O)c3c(OC)c(OC)c(OC)c(OC)c3o2)cc1` [tangeretin], the “effect on efflux of silybin” value with Caco-2 cell monolayers (0.5 μM tangeretin, silybin 2.5 to 40 μM) is given as “Significant inhibitory effects”. In the data set with Caco-2 cell monolayers, the “lowest effective dosage for inhibiting efflux transport of silybin” value was 0.05 µM.

Take `COc1cc(C2Oc3cc([C@H]4Oc5cc(O)cc(O)c5C(=O)[C@@H]4O)ccc3OC2CO)ccc1O` (stereo partly drawn) [silybin]: the MRP2 substrate status entry on MRP2 (dog, 180 min, 10 µM) is “is a MRP2 substrate”. Moreover, the “permeability of silybin in absence or presence of P-gp, MRP and BCRP efflux inhibitors” value in the data set with MDCKII-WT cells (Caco-2) is given as “no significant difference”. Also, at BCRP (dog, 180 min, 10 µM), the BCRP substrate status result is “is a substrate for both MRP2 and BCRP efflux proteins”. For the same compound, the “MDR1 (P-gp) substrate status” value at MDR1 (P-gp) (dog, MDCK-MDR1, 180 min, 10 µM) is listed as “is not a substrate for MDR1 (P-gp) efflux transporter”.

Regarding `COc1cc([C@H]2Oc3cc([C@H]4Oc5cc(O)cc(O)c5C(=O)[C@@H]4O)ccc3O[C@@H]2CO)ccc1O` [silybin A], the “mean net efflux ratio” value is on record as 3.06 at MRP2 and 1.01 in the data set with MDCKII-WT cells. For the same compound, the PA-B in the data set on Caco-2 cell monolayers is 0.47±0.03×10^−6 cm/s. In addition, in the data set on Caco-2 cell monolayers, the “mean efflux ratio (PB-A/PA-B)” value is on record as 5.05. The net efflux ratio on BCRP is 2.96; on MDR1 (P-gp) it was 1.39.
